Measurements: US20250282768A1 (Janssen Pharmaceutica NV, priority 2022, published 2025)

Tested on: p-IKKa levels in L363 (NIK translocated multiple myeloma) cells
Assay: Assay 2: Effect of compounds on p-IKKa levels in L363 (NIK translocated multiple myeloma) cells
Format: cell-based
Settings: Homo sapiens, L-363, 6 h, read-out: Assay 2 IC50 (nM), p-IKKa (Ser 176/180) in BAFF stimulated L363 cells with MG132, 6 h; average if tested more than once
Method: Assay 2: Effect of Compounds on p-IKKa Levels in L363 (NIK Translocated Multiple Myeloma) Cells
All compounds tested were dissolved and serially diluted in DMSO, 1:3 dilution for 11 points in an Echo compatible plate. 100% DMSO was added to columns 12 and 24 of the plate to serve as high and low signal controls. This compound plate was used to spot 20 nL of compound or DMSO into a Greiner 384 well TC plate (781080). The final DMSO concentration was 0.3% (v/v) in cell assays. Human L363 cells (ATCC) were cultured in RPM11640 medium supplemented with GlutaMax, non-essential amino acids, sodium pyruvate and 10% fetal bovine serum. Cells were routinely maintained at densities of 0.2×10^6 cells per ml—2×10^6 cells per mL at 37° C. in a humidified 5% CO2 atmosphere incubator. Cells were passaged twice a week splitting back to obtain the low density. The day before the assay, cells were washed twice in HBSS (Hank's Balanced Salt Solution), resuspended in Dulbecco's Modified Eagle Medium (DMEM)+0.5% IgG and protease free BSA (Jackson Immuno Research Laboratories), +/−250 ng/ml recombinant human B-cell activating factor (BAFF/BLyS/TNFSF13B) and incubated overnight at 37° C. in a humidified 5% CO2 atmosphere (bulk stimulation with or without BAFF). The next day, the cell concentration was adjusted to 1×10^7 cells/ml in DMEM+/−250 ng/ml BAFF +/−10 μM MG132 and plated at 10 μl/well into compound or DMSO spotted 384 well TC plates. Seeded cells were incubated at 37° C. in a humidified 5% CO2 atmosphere for 6 h. After 6 h, the plates were removed from the incubator and cell lysis was achieved by the addition of 2.5 μl 5×lysis buffer containing protease and phosphatase inhibitors, followed by shaking on a plate shaker at room temperature for 15 min. At the end of this incubation, lysed cells were sequentially treated and incubated with acceptor and donor bead mixes according to the manufacturer's protocol for a 1 plate/2-incubation suspension cell assay (AlphaLISA SureFire Ultra p-IKKa (Ser 176/180) Assay Kit (Perkin Elmer). Plates were read using an EnVision Multilabel Plate Reader (Perkin Elmer). Within an experiment, a concentration response curve for each compound was run in duplicate. The signal obtained in the test wells was normalized using high signal (BAFF stimulated cells, DMSO, MG132) and low signal (unstimulated cells, DMSO) controls. To determine the IC50, a sigmoidal curve was fitted to the plot of % inhibition versus Log10 compound concentration.

SMILES	IC50 [nM]
CN1CCn2nc(Nc3nccc(-c4cccc(-c5cc([C@]6(O)CCN(C)C6=O)on5)n4)n3)cc2C1=O [Example 467, (R)-2-((4-(6-(5-(3-Hydroxy-1-methyl-2-oxopyrrolidin-3-yl)isoxazol-3-yl)pyridin-2-yl)pyrimidin-2-yl)amino)-5-methyl-6,7-dihydropyrazolo[1,5-a]pyrazin-4(5H)-one]	50 to 500
CN1CC[C@@](O)(c2cc(-c3cccc(-c4nc(Nc5nn(C)cc5C#N)ncc4F)c3)no2)C1=O [Example 424, (R)-3-((5-Fluoro-4-(3-(5-(3-hydroxy-1-methyl-2-oxopyrrolidin-3-yl)isoxazol-3-yl)phenyl)pyrimidin-2-yl)amino)-1-methyl-1H-pyrazole-4-carbonitrile]	> 500
CC(Nc1nccc(-c2cccc(-c3cc([C@]4(O)CCN(C)C4=O)on3)n2)n1)c1ncccn1 (stereo partly drawn) [Example 377, (3R)-3-Hydroxy-1-methyl-3-(3-(6-(2-((1-(pyrimidin-2-yl)ethyl)amino)pyrimidin-4-yl)pyridin-2-yl)isoxazol-5-yl)pyrrolidin-2-one]	> 500
CN1CC[C@@](O)(c2cc(-c3cccc(-c4ccnc(NC5CCN(C6CC6)C5)n4)n3)no2)C1=O (mixture of isomers) [Example 448, (3R)-3-(3-(6-(2-((1-Cyclopropylpyrrolidin-3-yl)amino)pyrimidin-4-yl)pyridin-2-yl)isoxazol-5-yl)-3-hydroxy-1-methylpyrrolidin-2-one]	> 500
COc1cc(-c2ccnc(Nc3cnn(C)c3)n2)nc(-n2cc([C@]3(O)CCN(C)C3=O)nn2)c1 [Example 136, (R)-3-Hydroxy-3-(1-(4-methoxy-6-(2-((1-methyl-1H-pyrazol-4-yl)amino)pyrimidin-4-yl)pyridin-2-yl)-1H-1,2,3-triazol-4-yl)-1-methylpyrrolidin-2-one]	< 50
C[C@@H](Nc1nccc(-c2cccc(-c3cc([C@]4(O)CCN(C)C4=O)on3)n2)n1)C(=O)N1CC(C(F)(F)F)C1 [Example 171, (R)-3-Hydroxy-1-methyl-3-(3-(6-(2-(((R)-1-oxo-1-(3-(trifluoromethyl)azetidin-1-yl)propan-2-yl)amino)pyrimidin-4-yl)pyridin-2-yl)isoxazol-5-yl)pyrrolidin-2-one]	50 to 500
COC[C@H](C)Nc1nccc(-c2cccc(-c3cc([C@]4(O)CCN(C)C4=O)on3)n2)n1 [Example 440, (R)-3-Hydroxy-3-(3-(6-(2-(((S)-1-methoxypropan-2-yl)amino)pyrimidin-4-yl)pyridin-2-yl)isoxazol-5-yl)-1-methylpyrrolidin-2-one]	50 to 500
CN1CC[C@@](O)(c2cc(-c3cccc(-c4ccnc(Nc5ncn6ccnc6n5)n4)n3)no2)C1=O [Example 315, (R)-3-Hydroxy-3-(3-(6-(2-(imidazo[1,2-a][1,3,5]triazin-2-ylamino)pyrimidin-4-yl)pyridin-2-yl)isoxazol-5-yl)-1-methylpyrrolidin-2-one]	> 500
C[C@H]1Cn2nc(Nc3nccc(-c4cccc(-c5cc([C@]6(O)CCN(C)C6=O)on5)n4)n3)cc2CO1 (single isomer, unassigned) [Example 115, (R)-3-Hydroxy-1-methyl-3-(3-(6-(2-(((*S)-6-methyl-6,7-dihydro-4H-pyrazolo[5,1-c][1,4]oxazin-2-yl)amino)pyrimidin-4-yl)pyridin-2-yl)isoxazol-5-yl)pyrrolidin-2-one]	50 to 500
Cc1nn(CC(F)F)cc1Nc1nccc(-c2cccc(-n3cc([C@]4(O)CCN(C)C4=O)nn3)n2)n1 [Example 144, (R)-3-(1-(6-(2-((1-(2,2-Difluoroethyl)-3-methyl-1H-pyrazol-4-yl)amino)pyrimidin-4-yl)pyridin-2-yl)-1H-1,2,3-triazol-4-yl)-3-hydroxy-1-methylpyrrolidin-2-one]	< 50
Cc1nn(C)c(C)c1Nc1nccc(-c2cccc(-c3cc([C@]4(O)CCN(C)C4=O)on3)n2)n1 [Example 289, (R)-3-Hydroxy-1-methyl-3-(3-(6-(2-((1,3,5-trimethyl-1H-pyrazol-4-yl)amino)pyrimidin-4-yl)pyridin-2-yl)isoxazol-5-yl)pyrrolidin-2-one]	> 500
CN1CC[C@@](O)(c2cc(-c3cccc(-c4ccnc(Nc5cnn(C)c5C(F)(F)F)n4)n3)no2)C1=O (single isomer, unassigned) [Example 132, (*R)-3-Hydroxy-1-methyl-3-(3-(6-(2-((1-methyl-5-(trifluoromethyl)-1H-pyrazol-4-yl)amino)pyrimidin-4-yl)pyridin-2-yl)isoxazol-5-yl)pyrrolidin-2-one]	< 50
CN1CC[C@@](O)(c2cc(-c3cccc(-c4ccnc(Nc5cnn(C6CCNC6)c5)n4)n3)no2)C1=O (stereo partly drawn) [Example 90, (3R)-3-Hydroxy-1-methyl-3-(3-(6-(2-((1-(pyrrolidin-3-yl)-1H-pyrazol-4-yl)amino)pyrimidin-4-yl)pyridin-2-yl)isoxazol-5-yl)pyrrolidin-2-one]	50 to 500
CN1CC[C@@](O)(c2cc(-c3cccc(-c4ccnc(Nc5nn(C)c6c5CNC6)n4)c3)no2)C1=O [Example 418, (R)-3-Hydroxy-1-methyl-3-(3-(3-(2-((1-methyl-1,4,5,6-tetrahydropyrrolo[3,4-c]pyrazol-3-yl)amino)pyrimidin-4-yl)phenyl)isoxazol-5-yl)pyrrolidin-2-one]	> 500
[2H]C1([2H])N(C)C(=O)[C@](O)(c2cc(-c3cccc(-c4ccnc(Nc5ccn(C)n5)n4)n3)no2)C1([2H])[2H] [Example 8, (R)-3-Hydroxy-1-methyl-3-(3-(6-(2-((1-methyl-1H-pyrazol-3-yl)amino)pyrimidin-4-yl)pyridin-2-yl)isoxazol-5-yl)pyrrolidin-2-one-4,4,5,5-d4]	< 50
CN1CC[C@@](O)(c2cc(-c3cccc(-c4ccnc(Nc5cnn(C)c5Cl)n4)n3)n[nH]2)C1=O (single isomer, unassigned) [Example 104]	> 500
CO[C@@H](CNc1nccc(-c2cccc(-c3cc([C@]4(O)CCN(C)C4=O)on3)n2)n1)C(F)(F)F (single isomer, unassigned) [Example 463, (R)-3-Hydroxy-1-methyl-3-(3-(6-(2-(((*S)-3,3,3-trifluoro-2-methoxypropyl)amino)pyrimidin-4-yl)pyridin-2-yl)isoxazol-5-yl)pyrrolidin-2-one]	50 to 500
CN1CC[C@@](O)(c2cc(-c3cccc(-c4ccnc(Nc5nccn5C)n4)n3)no2)C1=O [Example 398, (R)-3-Hydroxy-1-methyl-3-(3-(6-(2-((1-methyl-1H-imidazol-2-yl)amino)pyrimidin-4-yl)pyridin-2-yl)isoxazol-5-yl)pyrrolidin-2-one]	> 500
CN1CC[C@@](O)(c2cc(-c3cccc(-c4ccnc(Nc5cnn(C)c5)n4)c3F)no2)C1=O [Example 427, (R)-3-(3-(2-Fluoro-3-(2-((1-methyl-1H-pyrazol-4-yl)amino)pyrimidin-4-yl)phenyl)isoxazol-5-yl)-3-hydroxy-1-methylpyrrolidin-2-one]	> 500
Cc1ncccc1Nc1nccc(-c2cccc(-n3cc([C@]4(O)CCN(C)C4=O)nn3)n2)n1 [Example 190, (R)-3-Hydroxy-1-methyl-3-(1-(6-(2-((2-methylpyridin-3-yl)amino)pyrimidin-4-yl)pyridin-2-yl)-1H-1,2,3-triazol-4-yl)pyrrolidin-2-one]	< 50
CN1CC[C@@](O)(c2cc(-c3cccc(-c4ccnc(Nc5ccncc5)n4)n3)no2)C1=O [Example 249, (R)-3-Hydroxy-1-methyl-3-(3-(6-(2-(pyridin-4-ylamino)pyrimidin-4-yl)pyridin-2-yl)isoxazol-5-yl)pyrrolidin-2-one]	< 50
CN1CC[C@@](O)(c2cc(-c3cccc(-c4ccnc(NC5(C)CC5)n4)n3)no2)C1=O [Example 442, (R)-3-Hydroxy-1-methyl-3-(3-(6-(2-((1-methylcyclopropyl)amino)pyrimidin-4-yl)pyridin-2-yl)isoxazol-5-yl)pyrrolidin-2-one]	50 to 500
CN1CC[C@@](O)(c2cc(-c3cccc(-c4ccnc(Nc5cnn6c5CCCC6)n4)n3)no2)C1=O [Example 259, (R)-3-Hydroxy-1-methyl-3-(3-(6-(2-((4,5,6,7-tetrahydropyrazolo[1,5-a]pyridin-3-yl)amino)pyrimidin-4-yl)pyridin-2-yl)isoxazol-5-yl)pyrrolidin-2-one]	< 50
